From patent US11000033B2, “Ketone or oxime compound, and herbicide” (NISSAN CHEMICAL CORPORATION, priority 2014, dated 2021)

Assays:
Assay type in all cases: in vivo
transplanted rice plant = experiment: Test Example 1: effect on crop, application before weed generation in submerged conditions (symbol a); details: application herbicide amount 320 g/ha
Procedure, shortened: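 Rice at 2.5 leaf stage transplanted into submerged soil (4 cm depth) sown with three weed species; herbicide applied before weed emergence.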

Scirpus juncoides = experiment: Test Example 2: herbicidal activity, application during weed generation in submerged conditions (symbol B); details: Table 23; application herbicide amount 320 g/ha; grade 0-5 by criteria of Test Example 1
Procedure, shortened: (§1)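 Paddy pot test, submerged (4 cm water), alluvial soil, mixed sowing; greenhouse 25–30° C. Emulsion formulation diluted to predetermined rate, applied onto floodwater at 1–2 leaf stage. Visual herbicidal rating at 3 wk post-treatment.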

Monochoria vaginalis = experiment: Test Example 2: herbicidal activity, application during weed generation in submerged conditions (symbol C); details: Table 23; application herbicide amount 320 g/ha; grade 0-5 by criteria of Test Example 1
Procedure, shortened: as §1

[1] = tested on: Echinochloa crus-galli var. crus-galli; experiment: Test Example 4: herbicidal effect by soil treatment (symbol H); details: 320 g/ha
Procedure, shortened: (§2)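 Seeds were sown in sterilized diluvial soil, covered with about 1.5 cm of soil, and the soil surface was sprayed with a water-diluted emulsion of the compound at a predetermined rate. Plants grew in a greenhouse at 25° C. to 30° C.; effects were scored visually 3 weeks after application.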

Avena fatua = experiment: Test Example 4: herbicidal effect by soil treatment (symbol I); details: 320 g/ha
Procedure, shortened: as §2

Lolium multiflorum Lam. [2] = experiment: Test Example 4: herbicidal effect by soil treatment (symbol K); details: 320 g/ha
Procedure, shortened: as §2

Abutilon theophrasti = experiment: Test Example 4: herbicidal effect by soil treatment (symbol M); details: 320 g/ha
Procedure, shortened: as §2

soybean [3] = experiment: Test Example 4: effect on crop by soil treatment (symbol d); details: 320 g/ha
Procedure, shortened: (§3)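 Plants are raised in a greenhouse (25° C. to 30° C.) from spot-sown seed, which sits under about 1.5 cm of sterilized diluvial soil in a box shared with weed species.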

rice = experiment: Test Example 4: effect on crop by soil treatment (symbol b); details: 320 g/ha
Procedure, shortened: as §3

wheat = experiment: Test Example 4: effect on crop by soil treatment (symbol e); details: 320 g/ha
Procedure, shortened: as §3

beet = experiment: Test Example 4: effect on crop by soil treatment (symbol f); details: 320 g/ha
Procedure, shortened: as §3

Digitaria ciliaris = experiment: Test Example 5: herbicidal effect by foliage application, plastic box (symbol F); details: 320 g/ha, 3 weeks after application
Procedure, shortened: (§4)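 Leaf-applied emulsion, water-diluted to a preset herbicide dose, on two-week-old seedlings raised in a 25° C. to 30° C. greenhouse; injury rated at 3 weeks using earlier criteria.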

[4] = tested on: Echinochloa crus-galli var. crus-galli; experiment: Test Example 5: herbicidal effect by foliage application, plastic box (symbol H); details: 320 g/ha, 3 weeks after application
Procedure, shortened: as §4

Lolium multiflorum Lam. [5] = experiment: Test Example 5: herbicidal effect by foliage application, plastic box (symbol K); details: 320 g/ha, 3 weeks after application
Procedure, shortened: as §4

Amaranthus retroflexus = experiment: Test Example 5: herbicidal effect by foliage application, plastic box (symbol N); details: 320 g/ha, 3 weeks after application
Procedure, shortened: as §4

Veronica persica = experiment: Test Example 5: herbicidal effect by foliage application, plastic box (symbol R); details: 320 g/ha, 3 weeks after application
Procedure, shortened: as §4

corn = experiment: Test Example 5: effect on crop by foliage application, plastic box (symbol c); details: 320 g/ha, 3 weeks after application
Procedure, shortened: (§5)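 Sterilized diluvial soil, plastic box (21 × 13 × 7 cm); spot sowing, ~1.5 cm soil cover; greenhouse 25–30° C.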

soybean [6] = experiment: Test Example 5: effect on crop by foliage application, plastic box (symbol d); details: 320 g/ha, 3 weeks after application
Procedure, shortened: as §5

rapeseed = experiment: Test Example 5: effect on crop by foliage application, plastic box (symbol g); details: 320 g/ha, 3 weeks after application
Procedure, shortened: as §5

SMILES | Effect grade on crop, a: transplanted rice plant (transplanted rice plant) | Herbicidal effect grade, B: Scirpus juncoides (Scirpus juncoides) | Herbicidal effect grade, C: Monochoria vaginalis (Monochoria vaginalis) | H: Echinochloa crus-galli var. crus-galli, herbicidal effect grade [1] | I: Avena fatua, herbicidal effect grade (Avena fatua) | K: Lolium multiflorum Lam., herbicidal effect grade (Lolium multiflorum Lam. [2]) | M: Abutilon theophrasti, herbicidal effect grade (Abutilon theophrasti) | d: soybean, effect grade on crop (soybean [3]) | b: directly sowed rice plant, effect grade on crop (rice) | e: wheat, effect grade on crop (wheat) | f: beet, effect grade on crop (beet) | F: Digitaria ciliaris, herbicidal effect (criteria 0-5) (Digitaria ciliaris) | H: Echinochloa crus-galli var. crus-galli, herbicidal effect (criteria 0-5) [4] | K: Lolium multiflorum Lam., herbicidal effect (criteria 0-5) (Lolium multiflorum Lam. [5]) | N: Amaranthus retroflexus, herbicidal effect (criteria 0-5) (Amaranthus retroflexus) | R: Veronica persica, herbicidal effect (criteria 0-5) (Veronica persica) | c: corn, effect on crop (criteria 0-5) (corn) | d: soybean, effect on crop (criteria 0-5) (soybean [6]) | g: rapeseed, effect on crop (criteria 0-5) (rapeseed)
CON=C(C)CC1CC(OC(=O)COc2ccc(C(C)=O)cc2)=C(c2c(C)cc(C)cc2C)C1=O (stereo not shown) [1-080] | 5 (Herbicidal ratio of 90% or more (almost completely withered)) | 4 (Herbicidal ratio of 70% or higher and lower than 90%) | 2 (Herbicidal ratio of 20% or higher and lower than 40%) | 5 (Herbicidal ratio of 90% or more (almost completely withered)) | 3 (Herbicidal ratio of 40% or higher and lower than 70%) | 5 (Herbicidal ratio of 90% or more (almost completely withered)) | 4 (Herbicidal ratio of 70% or higher and lower than 90%) | 1 (Herbicidal ratio of 5% or higher and lower than 20%) | 5 (Herbicidal ratio of 90% or more (almost completely withered)) | 4 (Herbicidal ratio of 70% or higher and lower than 90%) | 0 (Herbicidal ratio of 5% or lower (almost no effect)) | 5 (Herbicidal ratio of 90% or more (almost completely withered)) | 5 (Herbicidal ratio of 90% or more (almost completely withered)) | 5 (Herbicidal ratio of 90% or more (almost completely withered)) | 0 (Herbicidal ratio of 5% or lower (almost no effect)) | 1 (Herbicidal ratio of 5% or higher and lower than 20%) | 5 (Herbicidal ratio of 90% or more (almost completely withered)) | 4 (Herbicidal ratio of 70% or higher and lower than 90%) | 4 (Herbicidal ratio of 70% or higher and lower than 90%)
CON=C(C)CC1CC(OC(=O)COc2ccc(Br)cc2)=C(c2c(C)cc(C)cc2C)C1=O (stereo not shown) [1-081] | 5 (Herbicidal ratio of 90% or more (almost completely withered)) | 4 (Herbicidal ratio of 70% or higher and lower than 90%) | 3 (Herbicidal ratio of 40% or higher and lower than 70%) | 5 (Herbicidal ratio of 90% or more (almost completely withered)) | 3 (Herbicidal ratio of 40% or higher and lower than 70%) | 5 (Herbicidal ratio of 90% or more (almost completely withered)) | 4 (Herbicidal ratio of 70% or higher and lower than 90%) | 1 (Herbicidal ratio of 5% or higher and lower than 20%) | 5 (Herbicidal ratio of 90% or more (almost completely withered)) | 4 (Herbicidal ratio of 70% or higher and lower than 90%) | 0 (Herbicidal ratio of 5% or lower (almost no effect)) | 5 (Herbicidal ratio of 90% or more (almost completely withered)) | 5 (Herbicidal ratio of 90% or more (almost completely withered)) | 5 (Herbicidal ratio of 90% or more (almost completely withered)) | 5 (Herbicidal ratio of 90% or more (almost completely withered)) | 0 (Herbicidal ratio of 5% or lower (almost no effect)) | 5 (Herbicidal ratio of 90% or more (almost completely withered)) | 5 (Herbicidal ratio of 90% or more (almost completely withered)) | 5 (Herbicidal ratio of 90% or more (almost completely withered))
CON=C(C)CC1CC(OC(=O)COc2ccc(I)cc2)=C(c2c(C)cc(C)cc2C)C1=O (stereo not shown) [1-082] | 5 (Herbicidal ratio of 90% or more (almost completely withered)) | 5 (Herbicidal ratio of 90% or more (almost completely withered)) | 3 (Herbicidal ratio of 40% or higher and lower than 70%) | 5 (Herbicidal ratio of 90% or more (almost completely withered)) | 3 (Herbicidal ratio of 40% or higher and lower than 70%) | 5 (Herbicidal ratio of 90% or more (almost completely withered)) | 5 (Herbicidal ratio of 90% or more (almost completely withered)) | 2 (Herbicidal ratio of 20% or higher and lower than 40%) | 5 (Herbicidal ratio of 90% or more (almost completely withered)) | 3 (Herbicidal ratio of 40% or higher and lower than 70%) | 0 (Herbicidal ratio of 5% or lower (almost no effect)) | 5 (Herbicidal ratio of 90% or more (almost completely withered)) | 5 (Herbicidal ratio of 90% or more (almost completely withered)) | 5 (Herbicidal ratio of 90% or more (almost completely withered)) | 0 (Herbicidal ratio of 5% or lower (almost no effect)) | 0 (Herbicidal ratio of 5% or lower (almost no effect)) | 5 (Herbicidal ratio of 90% or more (almost completely withered)) | 4 (Herbicidal ratio of 70% or higher and lower than 90%) | 4 (Herbicidal ratio of 70% or higher and lower than 90%)
CON=C(C)CC1CC(OC(=O)COc2ccc3ccccc3c2)=C(c2c(C)cc(C)cc2C)C1=O (stereo not shown) [1-083] | 5 (Herbicidal ratio of 90% or more (almost completely withered)) | 4 (Herbicidal ratio of 70% or higher and lower than 90%) | 3 (Herbicidal ratio of 40% or higher and lower than 70%) | 5 (Herbicidal ratio of 90% or more (almost completely withered)) | 3 (Herbicidal ratio of 40% or higher and lower than 70%) | 5 (Herbicidal ratio of 90% or more (almost completely withered)) | 4 (Herbicidal ratio of 70% or higher and lower than 90%) | 1 (Herbicidal ratio of 5% or higher and lower than 20%) | 5 (Herbicidal ratio of 90% or more (almost completely withered)) | 4 (Herbicidal ratio of 70% or higher and lower than 90%) | 0 (Herbicidal ratio of 5% or lower (almost no effect)) | 5 (Herbicidal ratio of 90% or more (almost completely withered)) | 5 (Herbicidal ratio of 90% or more (almost completely withered)) | 5 (Herbicidal ratio of 90% or more (almost completely withered)) | 4 (Herbicidal ratio of 70% or higher and lower than 90%) | 0 (Herbicidal ratio of 5% or lower (almost no effect)) | 5 (Herbicidal ratio of 90% or more (almost completely withered)) | 4 (Herbicidal ratio of 70% or higher and lower than 90%) | 4 (Herbicidal ratio of 70% or higher and lower than 90%)
